From patent publication US11918563B1, “Methods and compositions for treatment of epileptic disorders” (Ovid Therapeutics Inc., priority 2016, dated 2024)
Where two headings read alike, the source gives them in different places. Marks after values point to notes of the source that are not given here.

What was measured:
[1] = test system: Li-Pilo model of status epilepticus; assay: Ability to block benzodiazepine-resistant status epilepticus in the Li-Pilo model; assay type: in vivo, male Sprague Dawley rats
Method: At the conclusion of the behavioral observation period, a 3 mL injection of lactated Ringer's solution is administered to all surviving rats to replace any SE-induced fluid loss.
All animals in the study are retained for 24 hours following completion of the study for assessment of weight change.
Additional measures of effects, e.g., motor impairment, weight change post-SE, or survival from SE for 24 hrs are also recorded during the studies for all treatment conditions.

[2] = three-month efficacy study, insomnia; cited from earlier work
[3] = human, in vivo, po
[4] = for Fe: geometric mean N=10
[5] = patients with a history of drug abuse; cited from earlier work
[6] = 0.5 mg/kg i.p. 30 min after first convulsive seizure, rats
[7] = 2 mg/kg i.p. 30 min after first convulsive seizure, rats
[8] = 5 mg/kg i.p. 30 min after first convulsive seizure, rats
[9] = 10 mg/kg i.p. 30 min after first convulsive seizure, rats
[10] = 20 mg/kg i.p. 30 min after first convulsive seizure, rats

Compound | Protection (includes PK rats), percent [1, 6] | Protection (includes PK rats), protected/total [1, 6] | 24-hour Survival (excludes PK rats), percent ([1]; 0.5 mg/kg i.p., rats) | 24-hour Survival (excludes PK rats), survivors/total ([1]; 0.5 mg/kg i.p., rats) | Protection (includes PK rats), percent [1, 7] | Protection (includes PK rats), protected/total [1, 7] | 24-hour Survival (excludes PK rats), percent ([1]; 2 mg/kg i.p., rats) | 24-hour Survival (excludes PK rats), survivors/total ([1]; 2 mg/kg i.p., rats) | Protection (includes PK rats), percent [1, 8] | Protection (includes PK rats), protected/total [1, 8] | 24-hour Survival (excludes PK rats), percent ([1]; 5 mg/kg i.p., rats) | 24-hour Survival (excludes PK rats), survivors/total ([1]; 5 mg/kg i.p., rats) | Protection (includes PK rats), percent [1, 9] | Protection (includes PK rats), protected/total [1, 9] | 24-hour Survival (excludes PK rats), percent ([1]; 10 mg/kg i.p., rats) | 24-hour Survival (excludes PK rats), survivors/total ([1]; 10 mg/kg i.p., rats) | Protection (includes PK rats), percent [1, 10] | Protection (includes PK rats), protected/total [1, 10] | 24-hour Survival (excludes PK rats), percent ([1]; 20 mg/kg i.p., rats) | 24-hour Survival (excludes PK rats), survivors/total ([1]; 20 mg/kg i.p., rats) | other results
CC(=O)[C@H]1CC[C@H]2[C@@H]3CC[C@H]4C[C@](C)(O)CC[C@]4(C)[C@H]3CC[C@]12C [GNX, ganaxolone] | (0%) | 0/13 | (60%) | 6/10 | (0%) | 0/13 | (80%) | 8/10 | (0%) | 0/13 | (70%) | 7/10 | (7.7%) | 1/13 | (90%) | 9/10 | (30.8%)* | 4/13 | (90%) | 9/10 | Improvement in protection, in words ([1]; 20 mg/kg i.p., dose-dependent efficacy): significant (p<0.02) improvement in protection
Oc1noc2c1CCNC2 [gaboxadol, 4,5,6,7-tetrahydroisoxazolo [5,4-c] pyridine-3-ol] |  |  |  |  |  |  |  |  |  |  |  |  |  |  |  |  |  |  |  |  | Effects in sleep onset and sleep maintenance [2]: failed to show significant effects; Residual effect on primary endpoints Choice Reaction Time and Critical Flicker Fusion [3]: did not show residual effect; Residual effects on other measurements (MSLT, DSST, Tracking, Memory tests, Body Sway, Leeds Sleep Evaluation Questionnaire) [3]: did not show any signs of residual effects; 24-hour survival, in words ([1]; 10 mg/kg, rats): Significant improvements in 24-hour survival; Dose-response profile of protection, in words ([1]; i.p., p=0.071 at 0.5 mg/kg): Potential for inverted U-response profile; Fe ([4]; 2.5 mg single oral dose): 43%; Fe ([4]; 5 mg single oral dose): 45%; Fe ([4]; 10 mg I.V.): 53%; Fe ([4]; 10 mg Oral): 53%; Fe ([4]; 15 mg single oral dose): 50%; Fe ([4]; 20 mg single oral dose): 53%; CL (in CL/F row) ([4]; human, in vivo, iv, 10 mg): 438 mL/min; AUC0-∞ Slope (dose proportionality assessment) ([4]; human, in vivo, po): 0.98; Cmax Slope (dose proportionality assessment) ([4]; human, in vivo, po): 0.95; CL/F ([4]; human, in vivo, po, 2.5 mg): 461 mL/min; CL/F ([4]; human, in vivo, po, 5 mg): 488 mL/min; CL/F ([4]; human, in vivo, po, 10 mg): 476 mL/min; CL/F ([4]; human, in vivo, po, 15 mg): 469 mL/min; CL/F ([4]; human, in vivo, po, 20 mg): 499 mL/min; Psychiatric adverse events [5]: steep increase in psychiatric adverse events
CC(=O)[C@H]1CC[C@H]2[C@@H]3CC[C@H]4C[C@H](O)CC[C@]4(C)[C@H]3CC[C@]12C [ALLO, allopregnanolone] | (0%) | 0/13 | (60%) | 6/10 | (0%) | 0/13 | (70%) | 7/10 | (0%) | 0/13 | (72%) | 7/9 | (15%) | 2/13 | (90%) | 9/10 | (7.7%) | 1/13 | (90%) | 9/10 | 
CCN(CC)CCN1C(=O)CN=C(c2ccccc2F)c2cc(Cl)ccc21 [Flurazepam, flurazepam] |  |  |  |  |  |  |  |  |  |  |  |  |  |  |  |  |  |  |  |  | Residual effect on primary endpoints Choice Reaction Time and Critical Flicker Fusion [3]: showed significant effect
